According to patent US20170137753A1, “DELIVERY SYSTEMS COMPRISING MALODOR REDUCTION COMPOSITIONS” (The Procter & Gamble Company, priority 2014, published 2017):

Test: Blocker Index (BI), expert graders, malodorous fabric swatch treated with test material
Source text: Blocker materials suitable for use in consumer products of the present invention are chosen for their ability to decrease malodor, while not interfering with perception of a fragrance. Material selection is done by assigning two indices to a test sample material from two reference scales in order to rank odor strengths. The two reference scales are the Fragrance Fidelity Index (FFI) scale and the Blocker Index (BI) scale. The FFI ranks the ability of the test sample material to impart a perceivable odor which could cause interference when combined with another fragrance and the BI ranks the ability of the test sample material to reduce malodor perception. The two methods for assigning the indices to a test sample on the FFI and the BI reference scales are given below.
The first step in the method for assigning a BI to a test sample material on the BI reference scale is to create the BI reference swatches. […] Fabric swatches for this test are white knit polycotton (4 inch×4 inch) swatches from EMC ordered as PC 50/50. The supplier is instructed to strip the swatches first, stripping involves washing twice with a fragrance-free detergent and rinsing three times.
The BI scale contains one clean swatch with no malodor applied. […] These solutions are pipetted to the middle of the swatches. […] After drying for 30 minutes in a vented hood, the swatches are wrapped in aluminum foil to prevent odor contamination to the treated swatch. A clean untreated swatch is also included as the lowest anchor point of reference for malodor strength on the BI scale. The BI reference scale swatches should be used within 0.5 to 12 hours and discarded after 12 hours. The swatches are used as scale anchor points when graders evaluate a test sample(s) and are assigned a Blocker Index (BI) as show in Table 12.
The perfumer/expert grader is asked to rank order swatches according to a scale between 0 and 3.
The reference swatches represent the 0, 1, 2, and 3 BIs on the BI reference scale, Table 12. The expert grader should familiarizes him/herself with the strength of the odor on the BI reference swatches by sniffing each one starting at 0 (the lowest odor strength) and ending at 3 (the highest odor strength). This should be done prior to evaluating the swatch treated with the test material.
To evaluate the BI, the test material is applied to a malodorous swatch to determine how well the test material blocks the malodor. […] After drying the malodorous swatch a known concentration of test material solution, between 1 ppm and 100 ppm is pipetted onto the malodorous swatch. […] It is sometimes necessary to evaluate several levels of the test material between about 1 and about 100 ppm to determine the BI.
At least two perfumers/expert graders are used to assign the BI to the test sample. […] The test sample swatch is assigned a BI at or between numbers on the BI in table.

[1] = Conc 10 ppm test material on isovaleric acid swatch
[2] = Conc 50 ppm test material on isovaleric acid swatch

SMILES | BI [1] | BI [2] | BI (Conc 10 ppm test material on isovaleric acid swatch, listed as 1H-Indene-5-propanal, 2,3-dihydro-3 ,3-dimethyl-) | BI (Conc 50 ppm test material on isovaleric acid swatch, listed as 1H-Indene-5-propanal, 2,3-dihydro-3 ,3-dimethyl-)
CC1CCC2(C(C)C)CC(C)OC2C1 (stereo not drawn) [4,8-dimethyl-1-(methylethyl)-7-oxybiciclo[4.3.0]nonane] | 2.0 | 2.2 | – | –
CC1(C)CCc2ccc(CCC=O)cc21 [Material 261, 3-(3,3-dimethyl-2,3-dihydro-1H-inden-5-yl)propanal] | – | – | 1.5 | 2.7
CCC(=O)OC1CC2C3C=CCC3C1C2(C)C (stereo not drawn) [8,8-dimethyl-3a,4,5,6,7,7a-hexahydro-1H-4,7-methanoinden-6-yl propionate] | 1.5 | 2.2 | – | –
